Source: US10519105B2, “KCNQ2-5 channel activator” (ONO PHARMACEUTICAL CO., LTD., priority 2016, dated 2019)
In brackets after ≈: the same amount, converted by molar mass.

Tests used:
[1] = Solubility test (DMSO precipitation method, Japanese Pharmacopoeia dissolution test second solution); format: physicochemical; details: aqueous buffer, kinetic from dmso stock, JP dissolution test second solution pH 6.8, room temperature, quantification range 5 to 100 μM
Protocol: A calibration curve solution was prepared at 0.1, 0.4, and 2 μM by diluting a test substance (a 10 mM DMSO solution) with acetonitrile and adding acetonitrile containing an internal standard substance (candesartan).
A sample solution was prepared as follows. 5 μL of the compound of the present invention (a 10 mM DMSO solution) was added to 495 μL of the Japanese Pharmacopoeia dissolution test second solution (pH: 6.8), followed by stirring at room temperature for 5 hours. Then, the solution was transferred to a solubility filter plate and subjected to suction filtration. The filtrate (20 μL) was diluted with acetonitrile, followed by adding acetonitrile containing an internal standard substance (candesartan).
Each of the calibration curve and sample solutions (5 μL) was injected into LC-MS/MS (Discovery Max, manufactured by Thermo Scientific, Inc.) and subjected to quantification (quantification range: 5 to 100 μM). The solubility in the case where the value equal to or less than the quantification range was obtained was defined as <5 μM, and the solubility in the case where the value equal to or more than the quantification range was obtained was defined as […].

Human KCNQ2/3 channel = molecular target: T1, Human KCNQ2/3 channel (Homo sapiens, UniProt O43525+O43526); experiment: Opening action with respect to KCNQ2/3 channel by depolarization stimulation (thallium influx, FLIPR); format: cell-based; details: concentration giving 50% of the maximum reaction of retigabine (10 μM); human KCNQ2/3 expressing CHO-DHFR- cells; read-out: KCNQ2/3 ECrtg50
T1 construct: expressed in transfected cells; host or cells: CHO-DHFR- cells
Protocol: Human KCNQ2/3 expression cells (CHO-DHFR− cells) were seeded in each well of a 384-well plate (collagen-coated, black, clear bottom) at 0.5×10^4 cells/50 μL per well and cultured using a MEM ALPHA medium (containing 10 vol % inactivated (56° C., 30 min) fetal bovine serum, 100 IU/mL penicillin, 100 μg/mL streptomycin, and 2 mM L-glutamine) at 37° C. in 5% CO2 for 18 to 24 hours. After the medium in the plate was removed, incubation (room temperature, 60 minutes, shading) was performed in a loading buffer (prepared by the method described in the manual of FluxOR Thallium Detection Kit (Invitrogen, F10016, F10017)). A KCNQ2/3 channel opening action (thallium influx into cells) by depolarization stimulation (5 mM potassium and 0.5 mM thallium) was measured by FLIPR TETRA (Molecular Devices). The compound of the present invention was treated 5 minutes before the depolarization stimulation, and the reaction induced by the depolarization stimulation was measured over time for 180 seconds. The channel opening action of the compound of the present invention was evaluated based on the change amount of the fluorescence intensity from the time before the depolarization stimulation to the time after the elapse of 180 seconds, and the concentration (ECrtg50) satisfying 50% of the fluorescence intensity change of a maximum reaction (in the treatment at 10 μM) of retigabine under the conditions of this experiment was calculated.

SMILES | solubility at 5 h [1] [µM] | EC50 (Human KCNQ2/3 channel) [nM]
CC1(O)CCc2c1cc(Cl)c(NC(=O)NCCc1ccc(F)cc1)c2Cl (stereo not drawn) [Example 3(7), 1-(4,6-dichloro-1-hydroxy-1-methyl-2,3-dihydro-1H-inden-5-yl)-3-[2-(4-fluorophenyl)ethyl]urea] | 86 (≈ 34.2 µg/mL) | 500
CC1(O)CCc2c1cc(Cl)c(NC(=O)NCc1cccc(C(F)(F)F)c1)c2Cl (stereo not drawn) [Example 3(9), 1-(4,6-dichloro-1-hydroxy-1-methyl-2,3-dihydro-1H-inden-5-yl)-3-[3-(trifluoromethyl)benzyl]urea] | – | 40
CC1(O)CCc2c1cc(Cl)c(NC(=O)NC(C)(C)c1ccc(F)cc1)c2Cl (stereo not drawn) [Example 3(10), 1-(4,6-dichloro-1-hydroxy-1-methyl-2,3-dihydro-1H-inden-5-yl)-3-[2-(4-fluorophenyl)-2-propanyl]urea] | – | 300
CC1(O)CCc2c1cc(Cl)c(NC(=O)NCCC1CCCC1)c2Cl (stereo not drawn) [Example 3(13), 1-(2-cyclopentylethyl)-3-(4,6-dichloro-1-hydroxy-1-methyl-2,3-dihydro-1H-inden-5-yl)urea] | 92 (≈ 34.2 µg/mL) | 20
CC1(O)CCc2c1cc(Cl)c(NC(=O)NCc1ccc(OC(F)(F)F)cc1F)c2Cl (stereo not drawn) [Example 3(16), 1-(4,6-dichloro-1-hydroxy-1-methyl-2,3-dihydro-1H-inden-5-yl)-3-[2-fluoro-4-(trifluoromethoxy)benzyl]urea] | – | 30
CC1(O)CCc2c1cc(Cl)c(NC(=O)NCCOc1ccc(F)cc1)c2Cl (stereo not drawn) [Example 3(23), 1-(4,6-dichloro-1-hydroxy-1-methyl-2,3-dihydro-1H-inden-5-yl)-3-[2-(4-fluorophenoxy)ethyl]urea] | 83 (≈ 34.3 µg/mL) | 600

Now from value to compound:

solubility at 5 h [1] [µM] | EC50 (Human KCNQ2/3 channel) [nM] | SMILES
– | 400 | CC1(O)CCc2c1cc(Cl)c(NC(=O)NCCOC1CCCCC1)c2Cl (stereo not drawn) [Example 3(24), 1-[2-(cyclohexyloxy)ethyl]-3-(4,6-dichloro-1-hydroxy-1-methyl-2,3-dihydro-1H-inden-5-yl)urea]
– | 10 | CC1(O)CCc2c1cc(Cl)c(NC(=O)NCC1CC3CCC1C3)c2Cl (stereo not drawn) [Example 3(25), 1-(bicyclo[2.2.1]hept-2-ylmethyl)-3-(4,6-dichloro-1-hydroxy-1-methyl-2,3-dihydro-1H-inden-5-yl)urea]
85 (≈ 37.5 µg/mL) | 200 | CC1(CNC(=O)Nc2c(Cl)cc3c(c2Cl)CCC3(O)C(F)(F)F)CCOCC1 (stereo not drawn) [Example 12(2), 1-[4,6-dichloro-1-hydroxy-1-(trifluoromethyl)-2,3-dihydro-1H-inden-5-yl]-3-[(4-methyltetrahydro-2H-pyran-4-yl)methyl]urea]
– | 50 | O=C(NCc1cccc(N2CCCCC2)n1)Nc1c(Cl)cc2c(c1Cl)CCC2(O)C(F)(F)F (stereo not drawn) [Example 12(9), 1-[4,6-dichloro-1-hydroxy-1-(trifluoromethyl)-2,3-dihydro-1H-inden-5-yl]-3-{[6-(1-piperidinyl)-2 pyridinyl]methyl}urea]
– | 10 | O=C(NCc1ccc(-c2ccc(Cl)cc2)o1)Nc1c(Cl)cc2c(c1Cl)CCC2(O)C(F)(F)F (stereo not drawn) [Example 12(16), 1-{[5-(4-chlorophenyl)-2-furyl]methyl}-3-[4,6-dichloro-1-hydroxy-1-(trifluoromethyl)-2,3-dihydro-1H-inden-5-yl]urea]
– | 20 | CC1(CNC(=O)Nc2c(Cl)cc3c(c2Cl)CCC3(O)C(F)(F)F)CC1 (stereo not drawn) [Example 12(17), 1-[4,6-dichloro-1-hydroxy-1-(trifluoromethyl)-2,3-dihydro-1H-inden-5-yl]-3-[(1-methylcyclopropyl)methyl]urea]
– | 20 | O=C(NCc1cc2ccccc2[nH]1)Nc1c(Cl)cc2c(c1Cl)CCC2(O)C(F)(F)F (stereo not drawn) [Example 12(21), 1-[4,6-dichloro-1-hydroxy-1-(trifluoromethyl)-2,3-dihydro-1H-inden-5-yl]-3-(1H-indol-2-ylmethyl)urea]
– | 1 | C[C@@H](NC(=O)Nc1c(Cl)cc2c(c1Cl)CC[C@@]2(O)C(F)(F)F)c1ccc(F)cc1 [Example 22, 1-[(1S)-4,6-dichloro-1-hydroxy-1-(trifluoromethyl)-2,3-dihydro-1H-inden-5-yl]-3-[(1R)-1-(4-fluorophenyl)ethyl]urea]
